# In patent publication US6017933A, “Mannich bases of conjugated styryl ketones” (University of Saskatchewan Technologies Inc., priority 1999, dated 2000):
# Values joined by “and” are separate entries in the source; they are usually repeats but may differ in a detail not shown here. Equal entries are not always repeated. “Also recorded” adds a separate entry of the source. Structures can show the parent of a compound that is named as a salt. Where two headings read alike, the source gives them in different places.
# What was measured:
# L1210 cells = assay: Cytotoxicity, murine L1210 leukemic cells; type: cell-based; conditions: Mus musculus, mean
# [1] = tested on: Aspergillus fumigatus conidia; assay: Kill-curve experiment, Aspergillus fumigatus conidia; type: cell-based
# Experimental: Kill-Curve Experiment: 5 ml conidial suspension each of the AMB-, and ITZ-susceptible (W73355) and the resistant (AB16.4 and ITZ70) isolates prepared in PYG broth (1×10^6 conidia/ml) was incubated at 35° C. in the presence of 5 μm of AMB or 5 μm ITZ or 50 μm Compound 9b. At various time intervals, 0.1 ml aliquots of the conidial suspension were removed, diluted appropriately to obtain 10^2 to 10^4 fold dilution, and 0.1 ml aliquots were spread in duplicate on PYG agar plates. […] Identical treatment of the conidial suspension in the absence of the drug was used as the growth control.
# Aspergillus fumigatus [2] = assay: Murine pulmonary aspergillosis model; type: in vivo, Aspergillus fumigatus in DBA/2J female mice
# Experimental: In vivo susceptibility studies: DBA/2J female mice (Jackson Laboratories) weighing 20-23 grams (≈6 weeks old) were used. The mice were immunosuppressed by 3 consecutive subcutaneous injections (0.5 ml each) of cortisone acetate (250 mg/kg; Sigma Chemical Company) in sterile distilled water containing 0.1% Tween 80. The immunosuppressed mice were anesthetized by exposing to ether in a desiccator for 45±5 seconds and infected with 20 μl inoculum containing 1×10^6 conidia delivered to the nares of the animals as a single droplet from a micropipet. Compound 9b and AMB were dissolved in dimethyl sulfoxide (DMSO) and administered 24 hr post infection by intraperitoneal injection in 0.2 ml PBS per dose. […] The efficacy of chemotherapy was assessed by determining percent survival and the fungal load (CFU/lungs) of infected animals as determined by semiquantitative organ culture.
# Candida albicans = assay: Vaginal candidiasis in ovariectomized rats; type: in vivo, Candida albicans in ovariectomized rats; conditions: in Mineral Oil
# Experimental: As well, ovariectomized rats predisposed for Candida albicans infection by estrogen treatment were infected vaginally with 1×10^7 CFU per ml to produce vaginal candidiasis. The infected animals were treated with Compound 9b once daily (100 mg/kg=2 mg/[…]) for 5 days. Vaginal fluid was collected from each animal 72 hr post-treatment and CFUs per rat were determined by plating the […] fluid on PYG agar containing 200 ug/ml gentamicin.
# [3] = tested on: pathogenic yeasts and filamentous fungi; assay: Screening of conjugated styryl ketones against pathogenic yeasts and filamentous fungi; type: cell-based
# From the text: Approximately 90 compounds belonging to the conjugated styryl ketone class were screened for their activity against pathogenic yeasts and filamentous fungi. […] Since none of the previously examined compounds provided encouraging results for further studies, a series of α,β-unsaturated ketones with two sites for thiol alkylation reaction were synthesized.
# CEM cells = assay: Cytotoxicity, CEM human T-lymphocytes; conditions: for IC50: Homo sapiens, CCRF-CEM; for TIL1210 (CEM cells): IC50 T-lymphocytes (CEM)/IC50 L1210; for TIP388 (CEM cells): IC50 T-lymphocytes (CEM)/IC50 P388
# Molt 4/C8 cells = assay: Cytotoxicity, Molt 4/C8 human T-lymphocytes; conditions: for TIL1210 (Molt 4/C8 cells): IC50 T-lymphocytes (Molt 4/C8)/IC50 L1210; for TIP388 (Molt 4/C8 cells): IC50 T-lymphocytes (Molt 4/C8)/IC50 P388
# P388 cells = assay: Cytotoxicity, murine P388 leukemic cells (P388 D1); conditions: read-out: P388 cells IC50
# Aspergillus fumigatus [4] = assay: MIC and MLC, Aspergillus fumigatus, broth macrodilution
# human tumors = assay: Cytotoxicity, human tumor cell line panel (approximately 55 lines)
# [5] = tested on: AMB-resistant Aspergillus fumigatus; assay: MIC and MLC, AMB-resistant Aspergillus fumigatus, broth macrodilution; conditions: for MIC: 48 h
# [6] = tested on: ITZ-resistant Aspergillus fumigatus; assay: MIC and MLC, ITZ-resistant Aspergillus fumigatus, broth macrodilution; conditions: for MIC: 48 h
# human WiDr colon cancer = conditions: hydrobromide salt; human WiDr colon cancer in vitro; cited from earlier work
compound,measurement,setting,value
"CCN1CCC(O)(/C=C/c2ccc(Cl)cc2)C(C(=O)/C=C/c2ccc(Cl)cc2)C1 (centres unmarked) [Compound 9b, (3-[3-(4-chlorophenyl)-2-propenoyl]-4-[2-(4-chlorophenyl)vinylene]-1-ethyl-4-piperidinol hydrochloride]",IC50,L1210 cells,6.96 µM
same,killing at 50 µM,"[1]; Aspergillus fumigatus, 50 μm, within 24 hr",≥ 90%
same,fungicidal activity against AMB-resistant and ITZ-resistant isolates,[1]; data not shown,as susceptible to the fungicidal activity of Compound 9b as the susceptible one
same,reduction in CFU/lung,Aspergillus fumigatus [2]; 6.25 mg/kg/day,50%
same,mortality rate,"Aspergillus fumigatus [2]; 6.5 mg/kg/day for five days, mice",did not show any greater mortality rate than the placebo or the AMB-treated groups
same,fungal load of infected animals (in words),"Aspergillus fumigatus [2]; mouse, in vivo, hydrochloride",reduced significantly; also recorded: not as efficient as AMB for the reduction of fungal load
same,survival of infected animals,Aspergillus fumigatus [2]; vs DMSO placebo,did not improve significantly over the placebo group
same,% CFU reduction,Candida albicans,97.4%
same,Mean Value CFU/rat,"Candida albicans; mean of 6 animals, S.D. 1.7 × 10^4",1.2 × 10^4 CFU/rat
same,CFU/rat,"Candida albicans; individual animals, 100 mg/kg once daily for 5 days, 72 hr post-treatment, hydrochloride, 100 mg/kg",4.6 × 10^4 CFU/rat and 4.2 × 10^3 CFU/rat and 8.3 × 10^2 CFU/rat and 1.7 × 10^4 CFU/rat and 3.5 × 10^2 CFU/rat and 6.5 × 10^3 CFU/rat
same,antifungal activity (in words),[3],activity against both pathogenic yeasts and filamentous fungi at low concentrations
same,IC50,CEM cells; read-out: CEM cells IC50,20.1 µM
same,IC50,CEM cells; read-out: IC50 CEM,20.1 µM
same,TIL1210 (CEM cells),CEM cells,2.89
same,TIP388 (CEM cells),CEM cells,18.31
same,TIht (CEM cells),CEM cells; IC50 T-lymphocytes (CEM)/IC50 human tumors,0.78
same,TIL1210 (Molt 4/C8 cells),Molt 4/C8 cells,4.46
same,TIP388 (Molt 4/C8 cells),Molt 4/C8 cells,28.24
same,TIht (Molt 4/C8 cells),Molt 4/C8 cells; IC50 T-lymphocytes (Molt 4/C8)/IC50 human tumors,1.21
same,IC50,Molt 4/C8 cells; read-out: IC50 Molt 4/C8,31.1 µM
same,IC50,Molt 4/C8 cells; read-out: Molt 4/C8 cells IC50,31.1 µM
same,IC50,P388 cells,1.1 µM
same,MIC,"Aspergillus fumigatus [4]; Aspergillus fumigatus, 48 h, read-out: MIC Mean ± SD",11.9 ± 5.32 µM
same,MIC,"Aspergillus fumigatus [4]; Aspergillus fumigatus, 48 h, read-out: MIC Range",6.25 to 25 µM
same,MFC,"Aspergillus fumigatus [4]; Aspergillus fumigatus, read-out: MLC Range",12.5 to 25 µM
same,MIC,"Aspergillus fumigatus [4]; Aspergillus fumigatus, read-out: mean MIC value",11.9 µM
same,effectiveness compared with ITZ and AMB,Aspergillus fumigatus [4]; susceptible isolates,less effective than ITZ and AMB in susceptible isolates
same,MLC values relative to MIC values,Aspergillus fumigatus [4]; various Aspergillus fumigatus isolates,either the same as or twofold higher than the MIC values
same,IC50 relative to mean MIC for Aspergillus fumigatus,human tumors; mammalian cells (human tumor; b359 also Molt 4/C8 and CEM),2-3 fold
same,IC50,"human tumors; read-out: human tumors IC50, mean graph midpoint, approximately 55 cell lines, hydrobromide salts used for 4a, 11a-e",25.7 µM
same,IC50,human tumors; read-out: mean IC50 value for 55 different human tumour cells,25.7 µM
same,MIC,[5]; read-out: MIC Mean ± SD,9.85 ± 3.53 µM
same,MIC,[5]; read-out: MIC Range,6.25 to 12.5 µM
same,MFC,[5]; read-out: MLC Range,12 to 25 µM
same,MIC,[6]; read-out: MIC Mean ± SD,10.9 ± 6.35 µM
same,MIC,[6]; read-out: MIC Range,3.12 to 25 µM
same,MFC,[6]; read-out: MLC Range,6.25 to 25 µM
CCN(CC)CC(C)(C)C(=O)/C=C/c1ccc(Cl)cc1 [Compound 7],IC50,L1210 cells,6.39 µM
same,activity relative to 5-fluorouracil,human WiDr colon cancer,1.3 times
same,IC50,CEM cells; read-out: CEM cells IC50,1.94 µM
same,TIL1210 (CEM cells),CEM cells,0.30
same,TIP388 (CEM cells),CEM cells,0.88
same,TIL1210 (Molt 4/C8 cells),Molt 4/C8 cells,1.13
same,TIP388 (Molt 4/C8 cells),Molt 4/C8 cells,3.29
same,TIP388 and TIL1210 compared with compound 1b,Molt 4/C8 cells; human T-lymphocytes,inferior TIP388 and TIL1210 values than compound 1b
same,IC50,Molt 4/C8 cells; read-out: Molt 4/C8 cells IC50,7.24 µM
same,IC50,P388 cells,2.2 µM
